Columns and labels:
Assay in all cases: relative viability (nuclei count vs DMSO), 5 days (fraction); higher = more cells survive
[1] = test system: NCI-H647
Procedure, shortened: (§1)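 Relative viability is defined as nuclei in treated wells over nuclei in vehicle wells. Duplicate plates were run and medians reported. Lung cancer cell lines in 1536-well plates were dosed by pin tool one day after seeding, with one drug or with a fixed anchor-drug dose plus five library-drug doses (not always all listed) in √10 steps, and nuclei were counted after 5 days.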

[2] = test system: UMC-11
Procedure, shortened: as §1

[3] = test system: COR-L23
Procedure, shortened: as §1

[4] = test system: NCI-H1650
Procedure, shortened: as §1

[5] = test system: NCI-H322M
Procedure, shortened: as §1

[6] = test system: NCI-H441
Procedure, shortened: as §1

[7] = test system: EPLC-272H
Procedure, shortened: as §1

[8] = test system: HCC-15
Procedure, shortened: as §1

[9] = test system: H3255
Procedure, shortened: as §1

[10] = test system: SW 900
Procedure, shortened: as §1

[11] = test system: 201T
Procedure, shortened: as §1

[12] = test system: NCI-H2405
Procedure, shortened: as §1

[13] = test system: NCI-H1734
Procedure, shortened: as §1

[14] = test system: NCI-H1793
Procedure, shortened: as §1

[15] = test system: NCI-H2170
Procedure, shortened: as §1

[16] = test system: NCI-H2347
Procedure, shortened: as §1

[17] = test system: NCI-H2023
Procedure, shortened: as §1

[18] = test system: NCI-H520
Procedure, shortened: as §1

[19] = test system: PC-14
Procedure, shortened: as §1

[20] = test system: LOU-NH91
Procedure, shortened: as §1

[21] = test system: NCI-H3122
Procedure, shortened: as §1

## CCN(CC)CCCCNc1ncc2cc(-c3cc(OC)cc(OC)c3)c(NC(=O)NC(C)(C)C)nc2n1 + O=C(c1cc(Cc2n[nH]c(=O)c3ccccc23)ccc1F)N1CCN(C(=O)C2CC2)CC1 [Olaparib] (partner 8 µM)
[1]; first compound 0.01 µM
  relative viability: 0.476
[1]; first compound 0.03162 µM
  relative viability: 0.732
[1]; first compound 0.1 µM
  relative viability: 0.674
[1]; first compound 0.3162 µM
  relative viability: 0.563
[1]; first compound 1 µM
  relative viability: 0.393
[2]; first compound 0.01 µM
  relative viability: 0.39
[2]; first compound 0.03162 µM
  relative viability: 0.372
[2]; first compound 0.1 µM
  relative viability: 0.422
[2]; first compound 0.3162 µM
  relative viability: 0.353
[2]; first compound 1 µM
  relative viability: 0.422
[3]; first compound 0.01 µM
  relative viability: 0.365
[3]; first compound 0.03162 µM
  relative viability: 0.378
[3]; first compound 0.1 µM
  relative viability: 0.368
[3]; first compound 0.3162 µM
  relative viability: 0.403
[3]; first compound 1 µM
  relative viability: 0.344
[4]; first compound 0.01 µM
  relative viability: 0.815
[4]; first compound 0.03162 µM
  relative viability: 0.819
[4]; first compound 0.1 µM
  relative viability: 0.822
[4]; first compound 0.3162 µM
  relative viability: 0.635
[4]; first compound 1 µM
  relative viability: 0.676
[5]; first compound 0.01 µM
  relative viability: 0.784
[5]; first compound 0.03162 µM
  relative viability: 0.638
[5]; first compound 0.1 µM
  relative viability: 0.745
[5]; first compound 0.3162 µM
  relative viability: 0.82
[5]; first compound 1 µM
  relative viability: 0.76
[6]; first compound 0.01 µM
  relative viability: 0.601
[6]; first compound 0.03162 µM
  relative viability: 0.556
[6]; first compound 0.1 µM
  relative viability: 0.531
[6]; first compound 0.3162 µM
  relative viability: 0.715
[6]; first compound 1 µM
  relative viability: 0.688
[7]; first compound 0.01 µM
  relative viability: 0.884
[7]; first compound 0.03162 µM
  relative viability: 0.701
[7]; first compound 0.1 µM
  relative viability: 0.647
[7]; first compound 0.3162 µM
  relative viability: 0.737
[7]; first compound 1 µM
  relative viability: 0.488
[8]; first compound 0.01 µM
  relative viability: 0.681
[8]; first compound 0.03162 µM
  relative viability: 0.777
[8]; first compound 0.1 µM
  relative viability: 0.783
[8]; first compound 0.3162 µM
  relative viability: 0.82
[8]; first compound 1 µM
  relative viability: 0.728
[9]; first compound 0.01 µM
  relative viability: 0.567
[9]; first compound 0.03162 µM
  relative viability: 0.52
[9]; first compound 0.1 µM
  relative viability: 0.581
[9]; first compound 0.3162 µM
  relative viability: 0.575
[9]; first compound 1 µM
  relative viability: 0.558
[10]; first compound 0.01 µM
  relative viability: 0.834
[10]; first compound 0.03162 µM
  relative viability: 0.901
[10]; first compound 0.1 µM
  relative viability: 0.839
[10]; first compound 0.3162 µM
  relative viability: 0.793
[10]; first compound 1 µM
  relative viability: 0.592
[11]; first compound 0.01 µM
  relative viability: 0.913
[11]; first compound 0.03162 µM
  relative viability: 0.807
[11]; first compound 0.1 µM
  relative viability: 0.924
[11]; first compound 0.3162 µM
  relative viability: 0.853
[11]; first compound 1 µM
  relative viability: 0.719
[12]; first compound 0.01 µM
  relative viability: 0.873
[12]; first compound 0.03162 µM
  relative viability: 0.88
[12]; first compound 0.1 µM
  relative viability: 1.03
[12]; first compound 0.3162 µM
  relative viability: 0.952
[12]; first compound 1 µM
  relative viability: 0.928
[13]; first compound 0.01 µM
  relative viability: 0.595
[13]; first compound 0.03162 µM
  relative viability: 0.614
[13]; first compound 0.1 µM
  relative viability: 0.746
[13]; first compound 0.3162 µM
  relative viability: 0.638
[13]; first compound 1 µM
  relative viability: 0.569
[14]; first compound 0.01 µM
  relative viability: 0.676
[14]; first compound 0.03162 µM
  relative viability: 0.839
[14]; first compound 0.1 µM
  relative viability: 1.23
[14]; first compound 0.3162 µM
  relative viability: 0.926
[14]; first compound 1 µM
  relative viability: 0.54
[15]; first compound 0.01 µM
  relative viability: 0.583
[15]; first compound 0.03162 µM
  relative viability: 0.559
[15]; first compound 0.1 µM
  relative viability: 0.655
[15]; first compound 0.3162 µM
  relative viability: 0.676
[15]; first compound 1 µM
  relative viability: 0.732
[16]; first compound 0.01 µM
  relative viability: 0.585
[16]; first compound 0.03162 µM
  relative viability: 0.579
[16]; first compound 0.1 µM
  relative viability: 0.617
[16]; first compound 0.3162 µM
  relative viability: 0.655
[16]; first compound 1 µM
  relative viability: 0.602
[17]; first compound 0.01 µM
  relative viability: 0.521
[17]; first compound 0.03162 µM
  relative viability: 0.512
[17]; first compound 0.1 µM
  relative viability: 0.668
[17]; first compound 0.3162 µM
  relative viability: 0.55
[17]; first compound 1 µM
  relative viability: 0.449
[18]; first compound 0.01 µM
  relative viability: 0.367
[18]; first compound 0.03162 µM
  relative viability: 0.377
[18]; first compound 0.1 µM
  relative viability: 0.318
[18]; first compound 0.3162 µM
  relative viability: 0.272
[18]; first compound 1 µM
  relative viability: 0.261
[19]; first compound 0.01 µM
  relative viability: 0.318
[19]; first compound 0.03162 µM
  relative viability: 0.341
[19]; first compound 0.1 µM
  relative viability: 0.292
[19]; first compound 0.3162 µM
  relative viability: 0.278
[19]; first compound 1 µM
  relative viability: 0.236
[20]; first compound 0.01 µM
  relative viability: 0.895
[20]; first compound 0.03162 µM
  relative viability: 0.9
[20]; first compound 0.1 µM
  relative viability: 0.954
[20]; first compound 0.3162 µM
  relative viability: 0.952
[20]; first compound 1 µM
  relative viability: 0.884
[21]; first compound 0.01 µM
  relative viability: 0.642
[21]; first compound 0.03162 µM
  relative viability: 0.69
[21]; first compound 0.1 µM
  relative viability: 0.68
[21]; first compound 0.3162 µM
  relative viability: 0.647
[21]; first compound 1 µM
  relative viability: 0.71

Reference: the supplement of paper PMC10307832
